Measurements taken from publication PMC4686899, “Peptides derived from CXCL8 based on in silico analysis inhibit CXCL8 interactions with its receptor CXCR1” (Scientific Reports, 2015).
Ends that are not written are not given here.

Assays:
[1] = test system: THP-1 cell adhesion to CXCL8-treated HMEC-1; format: cell-based, human; conditions: 25 ng/ml CXCL8, 18 h, no peptide, vs control
Protocol: Human micro-vascular endothelial cell-1 (HMEC-1, from American Type Culture Collection Manassas, USA) was maintained in MCDB 131 medium (Sigma, USA) with L-glutamine and fetal bovine serum (Sigma, USA) to a final concentration of 15%. The medium was supplemented with 500 units/ml penicillin (Biowest, USA), 500 μg/ml streptomycin (Biowest, USA), 10 ng/ml Epidermal Growth Factor (ProSpec, USA) and 1 µg/ml hydrocortisone (Sigma, USA). The THP-1 cells were maintained in the RPMI-1640 medium (Invitrogen, USA) with 10% FBS. For the assay of THP-1 cell adhesion to HMEC-1 monolayers, confluent HMEC-1 cell monolayers cultured on 24-well plates were pretreated with peptides for one hour and activated with 25 ng/ml LPS (Sigma, USA) or full length CXCL8 (ProSpec, USA) for 18 hours. THP-1 monocytes were suspended in RPMI 1640 and prelabeled with 5 mM Calcein-AM (Invitrogen, USA) for 30 minutes. Before the THP-1 cells were added to HMEC-1, the monolayers were washed twice to remove LPS or CXCL8. Fluorescence labeled monocytes (3 × 10^5 cells/well) were then added to HMEC-1 and incubated for 30 minutes at 37 °C. […] The images of adhered THP-1 cells were photographed (five images per well) under fluorescent microscopy and the number of attached monocytes was counted with the software AlphaImager 2200 (Alpha Innotech, USA).

[2] = test system: THP-1 transmigration across CXCL8-stimulated HMEC-1; assay: CXCL8-induced monocyte transendothelial migration across HMEC-1 (Transwell); format: cell-based, human; conditions: 25 ng/ml CXCL8, 18 h, vs absence of CXCL8
Protocol: (§1) Human micro-vascular endothelial cell-1 (HMEC-1, from American Type Culture Collection Manassas, USA) was maintained in MCDB 131 medium (Sigma, USA) with L-glutamine and fetal bovine serum (Sigma, USA) to a final concentration of 15%. The medium was supplemented with 500 units/ml penicillin (Biowest, USA), 500 μg/ml streptomycin (Biowest, USA), 10 ng/ml Epidermal Growth Factor (ProSpec, USA) and 1 µg/ml hydrocortisone (Sigma, USA). The THP-1 cells were maintained in the RPMI-1640 medium (Invitrogen, USA) with 10% FBS.
Migration of THP-1 cells across HMEC-1 was performed in a Transwell system (BD Bioscences, USA). Briefly, HMEC-1 cells cultured on transwell (polycarbonate membranes with 8 μm pore sizes) filters were pretreated with peptides for one hour and then stimulated with 25 ng/ml LPS or CXCL8 for 18 hours. THP-1 monocytes (2 × 10^5 cells/well) were added to the upper chamber of transwell inserts containing 50 μl RPMI 1640. LPS (25 ng/ml), CXCL8 peptide (p_wt14) (0.5 and 5 mM), or both combinations were added to the lower chamber to initiate transmigration. After four hours of incubation at 37 °C under 5% CO2, cells that had transmigrated to the lower chamber were harvested and counted using microscopy. All experiments were measured in at least three independent studies, and the data represent the number of transmigrated THP-1 cells.

HMEC-1 = assay: Cell viability assay (WST-1); format: cell-based, human; conditions: various concentrations of p_wt14, 24 and 48 h, WST-1, vs control
Protocol: as §1
To evaluate if the peptide p_wt14 is toxic to the HMEC-1 under resting conditions, 2 × 10^4 cells were dispensed into each well of 96-well micro-plates and incubated for 2 hours for adhesion. After that, the medium containing peptide p_wt14 at various concentrations was added. After 24 and 48 hours of incubation, cells were washed with Hank’s balanced salt solution and the viabilities of HMEC-1were determined by WST-1 assay kit (Roche, USA). Each experiment was performed in quadruplicate and repeated at least three times.

[3] = target: CXCR1p receptor-derived peptide (Homo sapiens), P25024; assay: SPR; conditions: modification not given
CXCR1p receptor-derived peptide (Homo sapiens), P25024, sequence (P25024 9-29): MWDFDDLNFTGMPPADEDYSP

## CXCL8: chemokine CXCL8 (also known as interleukin-8 or IL-8), full length
[1]
  effect of CXCL8 on monocyte adhesion to HMEC-1 (in words): significant increase in the number of adhered monocytes
[2]
  effect of CXCL8 on monocyte transmigration (in words): considerable increase in monocyte transmigration

## QCIKTYSKPFHPKF [p_wt14]
HMEC-1
  HMEC-1 cell viability (in words): no significant cell viability difference

## IKTYSKPFHPKFIK [CXCL8 peptide p_wt14 14-residue peptide, P10145]
[3]
  Kd: 252 µM
